Measured values reported in patent publication US9433663B2, “Mobilization of hematopoietic stem cells” (Children's Hospital Medical Center, priority 2008, dated 2016).

What was measured:
LDBM cells = assay: proliferation (CFU) and toxicity in Cdc42+/+ and Cdc42−/− LDBM progenitors; assay type: cell-based, murine
Excerpt: To shed light on potential roles of CASIN in HSPC mobilization, the effects of CASIN on Cdc42-related cellular functions was studied, including adhesion, migration, and F-actin polymerization of progenitor cells in 32D myeloid progenitors. […] SDF-1α stimulation causes a reorganization of F-actin into a cortical ring around the cells. […] Thirdly, to gain further insight into cellular specificity and efficacy of CASIN, and also to rule out possible toxic effects by CASIN, Cdc42-involved BM progenitor cell functions were examined, including proliferation, adhesion, migration, and F-actin polymerization, in Cdc42^+/+ cells in parallel with Cdc42^−/− cells. In line with additional studies in a Cdc42 conditional knockout mouse model as described herein, Cdc42^−/− LDBM cells have increased CFU-forming progenitors compared to those of Cdc42^+/+.

LT-HSCs = assay: Example 9 double-labeling of LT-HSC localization in the niche; assay type: in vivo, mice; settings: 48 hours or earlier after mobilization
Procedure: These studies use a double-labeling technique to monitor the localization change of LT-HSCs upon mobilization by CASIN.
AMD3100 and G-CSF induced mobilization are used as positive controls, while the control medium is used as a negative control. DBA/2, PeP3b, and C57Bl/6 mice are used in parallel to test the effects of variable mobilization capacity on the movement of LT-HSCs.
Basically, mice are fed BrdU (0.8 mg/ml) in drinking water for 10 days, followed by a chase period of seventy days, after which only the slow cycling LT-HSCs are found to retain the BrdU-label. At the end of the chase period of BrdU labeling, CASIN, AMD3100, G-CSF, or control is administrated on the mice and 3H-TdR is pulse-labeled 1 h before sacrificing the mice. Mice are sacrificed at different time points post administration of mobilizers or control in order to reflect the kinetic changes of HSC localization upon mobilization. And then bone sections are immunochemically stained with anti-BrdU antibody and alkaline phosphatase-labeled secondary IgG, followed by visualization with red substrate. In the meantime, autoradiography is performed to visualize cell incorporated with 3H-TdR. A cell is considered to be double-labeled if it contains greater than 5 silver grains per nucleus over a bright nuclear pattern of red staining.

Fancc−/− mice = assay: Example 10 HSC/P mobilization in Fancc−/− mice; settings: mouse, in vivo
Procedure: The effects of CASIN on HSC/P mobilization in Fancc−/− mice are investigated under four groups in parallel with WT mice: (1) Control group; (2) G-CSF group: 2.5 μg G-CSF per mouse, twice a day for 4 d120; (3) CASIN group: 2.5 mg/Kg; (4) combination of CASIN and G-CSF: one injection of CASIN is given 40 h before the end of 4 d G-CSF administration.
Fancc−/− or WT mice are mobilized with regimens corresponding to the four experimental groups. Then PB are harvested by cardiac puncture. Phenotypically, the absolute number and percentage of HSC/Ps in PB after mobilization are determined as those of LSK (Lin− Sca+ c-Kit+) cells by flow cytometry. Functionally, CFU-C assay is performed in triplicate for each mouse by using PB of mice from different experimental groups, and CFU-GM, CFU-GEMM, BFU-E, and CFU-E are distinguished by morphology and using cytokine combinations. Furthermore, the long-term repopulation capacity of the mobilized HSCs is evaluated using a competitive repopulating assay and subsequent secondary transplantation as discussed above.

Cdc42 = Cdc42 (Mus musculus, UniProt P60766); assay: Rho GTPase effector pull-down in murine LDBM cells, Cdc42; assay type: cell-based; design: endogenous in cells; host or cells: murine low density bone marrow (LDBM) cells
Chain of Cdc42 (P60766 whole entry, the tested form may be a part): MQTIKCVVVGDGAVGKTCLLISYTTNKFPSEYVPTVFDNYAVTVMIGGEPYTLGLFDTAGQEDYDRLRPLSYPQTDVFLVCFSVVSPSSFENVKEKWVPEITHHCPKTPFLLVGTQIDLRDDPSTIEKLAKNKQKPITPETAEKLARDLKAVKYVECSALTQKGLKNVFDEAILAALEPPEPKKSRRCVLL
Procedure: To analyze the effects of CASIN on the formation of active GTP-bound Cdc42, RhoA, and Rac1, effector pulldown assays were carried out as described previously. Cdc42GAP^−/− MEF, LDBM, CD34^+ hCB cells were treated with CASIN at doses of 5-20 μM in parallel with vehicle control for 2 hrs after overnight starvation, and stimulated with cytokines subsequently. And then cells were lysed in a buffer containing 20 mM Tris-HCL (pH 7.6), 100 mM NaCl, 1% Triton X-100, 10 mM MgCl2, 2 mM NaF, and Protease inhibitor cocktail (Roche Diagnostics). Lysates were incubated with GST-P21-binding domain of PAK1 for RAC1-GTP and Cdc42-GTP, and GST-RBD domain of Rhotekin for RhoA-GTP respectively. Both bound- and unbound-form of Rho GTPases were probed by immunoblotting with antibodies specific for Rac1 (BD biosciences), Cdc42 (BD biosciences), and RhoA (cell signaling).

With `OCCNC1CCCc2c1[nH]c1ccc(-c3ccccc3)cc21` (centres unmarked) [CASIN] the “proliferation of WT progenitors” value (LDBM cells; Cdc42^+/+ LDBM cells, FIG. 2d) was “did not affect”, the “side effect on the KO cells” value (LDBM cells; Cdc42^−/− LDBM cells, FIG. 2d) was “nor showed any side effect” and the “myeloproliferative disorders (MPDs) or hyperactivation” value (LDBM cells; as compared with the Cdc42 conditional knockout mouse) was “did not cause”. For the same molecule, the “toxic effect in WT or Cdc42 deficient HSPCs” value (LDBM cells; dose range of 5-10 μM) was “without a detectable toxic effect”, the “number of BrdU-labeled LT-HSC in bone marrow niche” value (LT-HSCs) was “reduced” and the “mobilization of HSC/Ps (LSK cells, progenitor colonies) in Fancc−/− mice” value (Fancc−/− mice) was “effective mobilizer”. The Cdc42 activity (Cdc42; pre-treatment at 5 and 10 μM, mixed cytokine stimulation) was “dose-dependent inhibition” and the “reversibility of Cdc42 activity inhibition” value (Cdc42; removal of CASIN by a pre-wash) was “reversible”.
